{"source": "patent US8313901B2", "about": "“Methods and compositions related to the modulation of riboswitches” (Yale University, priority 2005, dated 2012)", "key": {"glmS ribozyme [1]": {"system": "glmS ribozyme", "assay": "High-throughput FRET fluorescence screen of substrate cleavage by bimolecular glmS ribozyme (Example 1, Method 1)", "type": "biochemical", "details": "for Fl21 h/Flg h: fluorescence ratio, high-throughput fluorescence screen, 21 h", "method": "The naturally occurring glmS RNA element catalyzes self-cleavage in the presence of modest concentrations (>100 μM) of glucosamine-6-phosphate (Gln6P, FIG. 1A). In the absence of this important metabolite, no cleavage activity is observed. Although the natural sequence of the glmS element forms a unimolecular cis-cleaving ribozyme, active glmS ribozyme can also be constructed as a biomolecular […] ribozyme. In this format, the cleaved strand, termed the substrate, includes the 5′ base pairs that form half of the pairing element 1 (P1) and the conserved nucleotides upstream P1 (FIG. 1B). The non-cleaved ribozyme strand includes the 3′ half of P1 and the remaining sequence of the glmS element. Using this biomolecular format, the 16-nucleotide substrate strand was labeled at the 3′ and the 5′ ends with the fluorescently probes fluorescein (F1) and cy3, respectively. In an uncleaved substrate RNA, emission of the excited state fluorescein is quenched by the enforced proximity of the cy3 quencher. Upon cleavage in the presence of the Gln6P system, the binding of Gln6P (or related derivatives) to the glmS riboswitch can be rapidly screened using standard high-throughput techniques.\nAfter a minimum of 10 hours incubation, the fluorescence intensity of FI increased ˜4 fold in the presence of 160 μM glucosamine-6-phosphate, whereas no observable change was detected in the absence of effector (FIG. 2). […] To further explore the discriminatory limits of this detection system, a library of sixteen Gln6P derivatives was also screened. The resulting glmS binding activities correspond well with the binding activities independently determined by gel electrophoresis methods (Table 1). Detection systems are also being used to screen a novel library of 20,000 compounds (Microsource Discovery Systems, Inc.) unrelated to Gln6P for binding the glmS ribozyme."}, "glmS ribozyme [2]": {"system": "glmS ribozyme", "assay": "Electrophoretic in-line probing of analog binding to glmS ribozyme"}, "ribD RNA": {"target": "ribD RNA", "details": "cited from earlier work"}, "glmS riboswitch": {"system": "glmS riboswitch", "details": "cited from earlier work"}, "[3]": {"system": "bimolecular glmS ribozyme", "assay": "High-throughput glmS assay, FRET in 384-well plates (Example 2)", "type": "biochemical, S. aureus", "details": "for relative fluorescence (relative to time zero): 200 μM", "method": "High-throughput glmS assay. High-throughput fluorescence assay validation and screening was performed in 384-well black polypropylene plates (Corning part number 3677) in a 10 μL solution of 50 mM HEPES (pH 7.5 at 25° C.), 10 mM MgCl2, and 200 mM KCl, with 0.01% SDS where indicated in the text. A Tecan Aquarius multichannel pipettor (Tecan Group, LTD, Switzerland) was used for automated liquid handling. In a typical experiment, a reaction mixture containing buffer and both RNA domains was transferred into the assay plates with the liquid handler, the fluorescence was measured, and the reaction was initiated by the addition of ˜50 nl of either GlcN6P, an analog of GlcN6P, or a library compound suspended at 10 mM in DMSO using the Tecan pin tool (˜50 μM final concentration of compound). Plates were sealed with non-breathable sealing tape and protected from light for the specified incubation time, at which point the plate was briefly centrifuged and the fluorescence measured. All multiplate fluorescence measurements were conducted with a Wallach Envision (Perkin Elmer, Wellesly, Mass.) plate reader with a 480 nm excitation filter (30 nm bandwidth) and a 535 nm emission filter (25 nm bandwidth).\nTo enable FRET detection of cleavage, the substrate was synthesized with a 5-(and 6-)-carboxyfluorescein (5/6-FAM) donor at the 3′ end and a Cy3™ acceptor at the 5′ end. When excited at 485 nm, the 5/6-FAM donor normally emits at a maximum wavelength of 526 nm. When the substrate strand is intact, however, the fluorescence of 5/6-FAM is reduced presumably due to quenching by the proximal Cy3™ acceptor. After addition of GlcN6P and cleavage of the substrate strand, the two product strands dissociate, relieving the proximity of 5/6-FAM and Cy3™, with a concomitant increase of 5/6-FAM fluorescence. Similar fluorescence-based systems have been used to detect ribozyme cleavage in real time (Singh et al., RNA 1999; 5: 1348-1356; Hanne et al., Nucleosides Nucleotides 1998; 17: 1835-1850). Using this FRET detection strategy, the addition of 40 μM GlcN6P induces an increase in the fluorescence signal of greater than 6 fold within 20 minutes (FIG. 7B). The modest burst in fluorescence increase could be due to a conformational change in the substrate that occurs upon ligand binding. Tertiary contacts between ribozyme and substrate would constrain the substrate to a greater extent compared to that caused by the short base paired region, thus increasing the average distance between donor and acceptor. Importantly, no fluorescence increase was observed over this time course in the absence of either GlcN6P or the ribozyme.\nTo facilitate rapid solution-based measurement of cleavage for large compound libraries, the assay conditions were optimized for automated liquid handling and fluorescence measurement in 384-well microplates. To reduce demand for enzyme and substrate RNAs, the concentrations of these molecules were varied to determine the minimal concentration of each that can be used to give a reproducible and statistically significant increase in the fluorescent signal. At 10 nM of each strand, a 4-fold increase in fluorescence was observed after 68 hours when 100 μM GlcN6P was present (FIG. 7C). […] At incubation times less than 48 hours, the increase in fluorescence was noticeably less, most likely because the concentration of the two RNA strands is well below the measured dissociation constant of 0.2 μM, slowing the observed cleavage rate. […]"}, "[4]": {"system": "bimolecular glmS ribozyme", "assay": "Kinetic assay with 5'-radiolabeled substrate", "type": "biochemical, S. aureus", "details": "0.5 μM ribozyme, 200 μM GlcN6P, saturating substrate, 25° C.", "method": "(§1) Low-throughput glmS kinetic analyses. All kinetic assays were conducted in 50 mM HEPES (pH 7.5 at 25° C.), 10 mM MgCl2, and 200 mM KCl. To initiate the reaction, GlcN6P was added to give a final concentration of 200 μM. Kinetic assays with radiolabeled substrate were performed as described previously (Soukup, Nucleic Acids Res 2006; 34: 968-975). Rate constants were established by plotting the natural logarithm of the fraction of substrate remaining uncleaved versus time, and then determining the negative slope of the resulting line. For the highest rate constants, only the initial phase of the plots were used because ˜20% of the RNA substrate remained uncleavable. Single reaction FRET-based kinetic assays were performed with λexcit=488 nm (slit width=1 nm), λemit=523 nm (slit width=8 nm).\nAlthough the glmS ribozyme sequence is highly conserved among many bacterial species, the S. aureus sequence was chosen for screening development because of its clinical importance. To facilitate detection of cleavage, the natural self-cleaving glmS ribozyme was converted to a bimolecular ribozyme (FIG. 6B) in which separate substrate and ribozyme oligonucleotides associate via a truncated P1 stem. […]"}, "[5]": {"system": "bimolecular glmS ribozyme", "assay": "Single reaction FRET-based kinetic assay of glmS cleavage", "type": "biochemical, S. aureus", "details": "40 μM GlcN6P, within 20 minutes", "method": "as §1, with “Single reaction FRET-based kinetic assays were performed with λexcit=488 nm (slit width=1 nm), λemit=523 nm (slit width=8 nm).” left out\nTo enable FRET detection of cleavage, the substrate was synthesized with a 5-(and 6-)-carboxyfluorescein (5/6-FAM) donor at the 3′ end and a Cy3™ acceptor at the 5′ end. […] When the substrate strand is intact, however, the fluorescence of 5/6-FAM is reduced presumably due to quenching by the proximal Cy3™ acceptor. After addition of GlcN6P and cleavage of the substrate strand, the two product strands dissociate, relieving the proximity of 5/6-FAM and Cy3™, with a concomitant increase of 5/6-FAM fluorescence. Similar fluorescence-based systems have been used to detect ribozyme cleavage in real time (Singh et al., RNA 1999; 5: 1348-1356; Hanne et al., Nucleosides Nucleotides 1998; 17: 1835-1850). […]"}, "glmS ribozyme [6]": {"system": "glmS ribozyme", "assay": "PAGE / electrophoretic analysis of glmS ribozyme activation", "type": "biochemical, S. aureus", "details": "after incubating for 2 hours", "method": "This cutoff for functional compounds (“hits”) of 2.5-fold increased fluorescence represents a statistically significant 18 standard deviations over the mean fluorescence value in the absence of ligand (“NL”). […] A similar case exists for glucosamine, which induces a 3.0-fold increase in fluorescence after 44 hours, even though its measured affinity for the ribozyme is more than 100-fold lower than GlcN6P (McCarthy et al., Chem Biol 2005; 12: 1221-1226). Thus, the fluorescent report from the high-throughput screen accurately reflects binding activity for the glmS ribozyme.\nEach of the five compounds identified was retested for glmS activation with either the fluorescence screen or by electrophoretic methods. […] Moreover, these types of infrequent false-positive hits have been observed for other fluorescence-based high-throughput screens (Zhang et al., J Biomol Screen 2005; 10: 695-704) and can readily be confirmed or refuted in our case with the secondary ribozyme cleavage assay (Soukup and Breaker, RNA 1999; 5: 1308-1325). One possible explanation for the false positives is that they quench or otherwise modify the fluorescent label on the RNA over the 44 hour time course, or that the compounds become fluorescent over time. Nevertheless, the identification of glucosamine confirms that this screen can identify even low affinity glmS-activating compounds from complex compound libraries."}, "[7]": {"system": "unimolecular glmS ribozyme", "details": "cited from earlier work"}}, "data": [{"compound": "CC(=O)N[C@H]1C(O)O[C@H](COP(=O)(O)O)[C@@H](O)[C@@H]1O", "note": "(some centres unmarked) [AcNGln 6P]", "values": [{"measurement": "Fl21 h/Flg h", "setting": "glmS ribozyme [1]", "result": 2.28}, {"measurement": "Activity by electrophoretic in-line probing", "setting": "glmS ribozyme [2]", "result": "Weakly"}]}, {"compound": "Cc1cc2nc3c(=O)[nH]c(=O)nc-3n(C[C@H](O)[C@H](O)[C@H](O)COP(=O)(O)O)c2cc1C", "note": "[FMN, flavin mononucleotide]", "values": [{"measurement": "Kd", "setting": "ribD RNA; read-out: apparent KD", "result": "~0.005", "unit": "µM"}]}, {"compound": "O=P(O)(O)OC[C@H]1OC(O)[C@H](O)[C@@H](O)[C@H]1O", "note": "(some centres unmarked) [Gal6P]", "values": [{"measurement": "Fl21 h/Flg h", "setting": "glmS ribozyme [1]", "result": 1.69}]}, {"compound": "N[C@@H]1[C@@H](O)[C@H](O)[C@@H](COP(=O)(O)O)O[C@@H]1O", "note": "[Gln6P com]", "values": [{"measurement": "Fl21 h/Flg h", "setting": "glmS ribozyme [1]", "result": 2.24}, {"measurement": "Activity by electrophoretic in-line probing", "setting": "glmS ribozyme [2]", "result": "Yes"}]}, {"compound": "N[C@H]1C(O)O[C@H](COP(=O)(O)O)[C@@H](O)[C@@H]1O", "note": "(some centres unmarked) [Gln6P, glucosamine-6-phosphate]", "values": [{"measurement": "concentration that activates cleavage", "setting": "glmS riboswitch; concentrations as low as", "result": "≥ 1", "unit": "µM"}, {"measurement": "single-turnover rate constant", "setting": "glmS riboswitch; previously reported", "result": 1, "unit": "min⁻¹"}, {"measurement": "Kd", "setting": "glmS riboswitch; read-out: apparent KD", "result": 200, "unit": "µM"}, {"measurement": "increase in fluorescence", "setting": "[3]; 10 nM of each strand, 100 μM GlcN6P, after 68 hours, 0.01% SDS", "result": 4, "unit": "fold"}, {"measurement": "relative fluorescence (relative to time zero)", "setting": "[3]; 21 hours", "result": 3.5}, {"measurement": "relative fluorescence (relative to time zero)", "setting": "[3]; 44 hours", "result": 3.4}, {"measurement": "increase in fluorescence", "setting": "[3]; screen of library of twelve GlcN6P analogs", "result": 3.5, "unit": "fold"}, {"measurement": "apparent rate constant of cleavage", "setting": "[4]", "result": 0.25, "unit": "min⁻¹"}, {"measurement": "increase in fluorescence intensity of Fl", "setting": "glmS ribozyme [1]; 160 μM glucosamine-6-phosphate, minimum of 10 hours incubation", "result": "~4", "unit": "fold"}, {"measurement": "Fl21 h/Flg h", "setting": "glmS ribozyme [1]", "result": 3.36}, {"measurement": "increase in the fluorescence signal", "setting": "[5]", "result": "greater than 6 fold"}, {"measurement": "Activity by electrophoretic in-line probing", "setting": "glmS ribozyme [2]", "result": "Yes"}]}, {"compound": "N[C@H]1C(O)O[C@H](CO)[C@@H](O)[C@@H]1O", "note": "(some centres unmarked) [Gln com]", "values": [{"measurement": "Fl21 h/Flg h", "setting": "glmS ribozyme [1]", "result": 1.87}, {"measurement": "Activity by electrophoretic in-line probing", "setting": "glmS ribozyme [2]", "result": "Yes"}]}, {"compound": "C[N+](C)(C)C1C(O)OC(COP(=O)(O)O)C(O)C1O", "note": "(centres unmarked) [Me3N-Gln 6P]", "values": [{"measurement": "Fl21 h/Flg h", "setting": "glmS ribozyme [1]", "result": 1.27}, {"measurement": "Activity by electrophoretic in-line probing", "setting": "glmS ribozyme [2]", "result": "No"}]}, {"compound": "CNC1C(O)OC(COP(=O)(O)O)C(O)C1O", "note": "(centres unmarked) [MeN-Gln 6P]", "values": [{"measurement": "Fl21 h/Flg h", "setting": "glmS ribozyme [1]", "result": 3.49}, {"measurement": "Activity by electrophoretic in-line probing", "setting": "glmS ribozyme [2]", "result": "Yes"}]}, {"compound": "N[C@H]1C(O)O[C@H](CO)[C@@H](O)[C@@H]1O", "note": "(some centres unmarked) [glucosamine]", "values": [{"measurement": "cleavage on a gel", "setting": "glmS ribozyme [6]", "result": "stimulates detectable cleavage"}, {"measurement": "increase in fluorescence", "setting": "[3]; after 44 hours", "result": 3.0, "unit": "fold"}, {"measurement": "activity in previously described glmS screen", "setting": "[7]; after 30 minutes", "result": "no observable activity"}, {"measurement": "activation of the glmS ribozyme", "setting": "[7]", "result": "cannot activate it"}]}, {"compound": "O=C[C@H](O)[C@@H](O)[C@H](O)[C@H](O)COP(=O)(O)O", "note": "[glucose-6-phosphate]", "values": [{"measurement": "activation of the glmS ribozyme", "setting": "[7]", "result": "cannot activate it"}]}, {"compound": "Cc1cc2nc3c(=O)[nH]c(=O)nc-3n(C[C@H](O)[C@H](O)[C@H](O)CO)c2cc1C", "note": "[riboflavin]", "values": [{"measurement": "discrimination against ligand relative to FMN", "setting": "ribD RNA", "result": "approximately three orders of magnitude"}]}, {"compound": "COC1OC(COP(=O)(O)O)C(O)C(O)C1N", "note": "(stereo not drawn) [β-MeO-Gln 6P]", "values": [{"measurement": "Fl21 h/Flg h", "setting": "glmS ribozyme [1]", "result": 1.02}, {"measurement": "Activity by electrophoretic in-line probing", "setting": "glmS ribozyme [2]", "result": "No"}]}]}
